Results taken from patent US6458758B1, “Compositions and methods utilizing nitroxides in combination with biocompatible macromolecules” (Synzyme Technologies, Inc., priority 1993, dated 2002).
Where two headings read alike, the source gives them in different places.

Legend:
[1] = In vivo ESR of mouse tail after iv nitroxide-labelled HBOC plus ^15ND17-TEMPOL; settings: 0.5 ml iv via cannula
Method: FIG. 7A is the ESR spectrum of the nitroxide signal recorded from the mouse tail approximately 10 minutes after intravenous infusion of 0.5 ml of the sample shown in FIG. 6. FIG. 7B is the time dependent (scan time 30 minutes) decrease in the center peak (Mo) signal intensity of FIG. 7A recorded at 10 times of the instrument sensitivity. FIG. 7C is a continuation of FIG. 7B at the end of its scan.
FIG. 8A is a series of 5 ESR spectrum recorded at 0.5 minute intervals, the magnetic field strength was increased by 2 Gauss in between each scan to display the decrease in signal intensity as a function of time. […]
The separation of the resonance peaks permits the simultaneous monitoring of free radical or enzyme mimic activities involving the small molecular weight nitroxide (TEMPOL) and its macromolecular conjugate in both in vitro and in vivo (murine) reactions. […] First, the approximate plasma half-life of a small molecular weight nitroxide (^15ND17-TEMPOL see FIG. 4C) and a large molecular weight 4-(2-bromoacetamido)-TEMPOL-labelled HBOC (see FIG. 4B) are determined by preparing a mixture of the two and adjusting the ESR signal intensity to be approximately the same (see FIG. 6). […] The mouse tail was inserted into an ESR cavity and the spectrum was recorded within 10 minutes after injection (see FIG. 7A). […]

[2] = Superoxide oxidase / dismutase activity of nitroxide-labelled hemoglobin on storage (ESR); format: biochemical
Excerpt: For example, an o-raffinose polymerized hemoglobin solution that has been labelled with 4-amino-TEMPO is stored in its oxygenated state in a sealed glass container (FIG. 1A). In such a state, the rate of superoxide anion and met-hemoglobin formation in solution is sufficiently rapid that the conversion of the nitroxide to its hydroxylamine derivatives may be conveniently monitored (See Equation [4] and compare FIGS. 1A and 1B). Equation 4 represents that the conversion of nitroxide to its diamagnetic hydroxyl derivative is coupled to the conversion of the superoxide anion back to molecular oxygen. […] (FIG. 1B). The nitroxide is considered to have performed a “superoxide oxidase”-like activity when it is converted to its hydroxylamine derivative in the presence of hemoglobin.
Knowing that under the experimental conditions described in FIGS. 1A and 1B the nitroxide is fully converted to hydroxylamine (See Equation [4]), the nitroxide may be regenerated by simply providing more superoxide anion as shown in Equation 5. […] This observation is consistent with the reconversion of the hydroxylamine derivative to nitroxide coupled with the formation of hydrogen peroxide from superoxide anion.

[3] = tested on: mice; settings: cited from earlier work
[4] = tested on: C57 mice; experiment: 30-day survival of C57 mice after 10 Gray irradiation; format: in vivo; settings: TPL 200 mg/kg ip, PNA 0.5 ml/mouse iv where given, 10 mice per group
[5] = EPR signal of ^15N-TEMPOL in isolated ischemic rat heart; settings: 2 mM TPL
Method: The solid lines are double-exponential fittings to the observed intensity data. The half-lives are 0.4 minutes, 2.9 minutes (▪), and 3.3 minutes, 30.1 minutes (●) respectively.
Using methods essentially as described in Kuppusamy et al. Proc. Natl. Act. Sci., USA Vol. 91, pgs.
In an EPR imaging study, the rat heart was perfused with a solution containing nitroxide with or without polynitroxide albumin, followed by cessation of perfusate flow in order to create ischemia. […] It can be seen the signal intensity undergoes a biphasic decay and that the presence of polynitroxide albumin greatly slows the decay. By thus stabilizing the TEMPOL signal, polynitroxide albumin allows high-quality EPR images to be obtained over a prolonged period of time. Referring to FIGS. 22-23, a three-dimensional EPR image of the ischemic heart can still be obtained after 156 minutes of global ischemia. […] This illustrates that the presence of PNA allows much better imaging than is possible with TEMPOL alone, in terms both of resolution and signal persistence.
In FIG. 24, the intensity of the EPR signal is shown as a function of the duration of ischemia. In the lower curve, 2 mM of TEMPOL is infused into an ischemic heart. The upper curve traces the original intensity of 2 mM TEMPOL together with a polynitroxide albumin (4 g/dl of albumin at 42 moles of TEMPOL per mole of albumin). […]

[6] = Plasma levels of TPL with or without PNA in C57 mice (EPR); settings: TPL 275 mg/kg ip alone
[7] = Rat plasma TPL after intravenous injection (EPR spin density); format: in vivo; settings: 100 mM solution, 10% v/v top load
Method: FIG. 14 is a plot showing time dependence of rat plasma concentrations of TPL after intravenous injections. Plasma samples were obtained from rats described in FIG. 13. TPL concentrations were determined from EPR spin density measurements.

[8] = tested on: C3H mice; settings: cited from earlier work
[9] = tested on: conscious rats; experiment: Mean arterial pressure response in conscious rats
Excerpt: The rats were allowed to recover from surgery and anesthesia for approximately 7 days prior to study.
The rats were allowed to recover from surgery and anesthesia for approximately seven days prior to study.

[10] = in vivo; settings: iv
[11] = tested on: Chinese Hamster V79 cells; experiment: Radioprotection of Chinese Hamster V79 cells at 12 Gray; format: cell-based; settings: 12 Gray x-ray; cells pretreated 10 minutes prior to irradiation
[12] = In vivo EPR of mouse skin: intradermal PNA and intravenous ^15N-TPL
Method: Thirty minutes later the spectrum in (C) was recorded.
The intensity of the low field ^15N-TPL peak is plotted against time. […].
FIGS. 42A and 42B show the pharmacokinetics of intravenous ^15N-TPL (1% v/w) measured at a patch of skin on the abdomen of the mouse.
A custom-built bridged loop-gap surface resonator, absorption microwave bridge was used for in vivo EPR spectroscopy at 1.25 GHz (L-band) in the mouse. […] The anesthetized mouse was placed in a ‘sandwich’ of two templates which allowed it to be placed on the loop-gap surface resonator, absorption microwave bridge in either the supine position, for spectroscopy of the back of the head, or in the prone position for spectroscopy of the abdomen. A tail vein cannula was used for intravenous injection of ^15N-TEMPOL; this injection site was remote from the resonator.
The spectrum was made 1 minute after ^15N-TPL was injected via the tail vein. […] FIG. 40B was recorded at approximately ⅕ of the instrument gain used in FIG. 40A in order to accommodate the ^15N-TPL signal.

[13] = tested on: leukocyte rolling and adhesion to endothelial cells; experiment: Cigarette smoke induced leukocyte rolling, adhesion and aggregate formation, dorsal skinfold chamber; format: in vivo, Syrian Golden hamsters
Excerpt: The interactions of leukocytes with endothelial cells and platelets are an indicator of the microcirculatory response to several adverse physiological conditions, ranging from localized and systemic ischemia/reperfusion injury, rejection of organ grafts, and the response to the organism to various oxidizing novae. See also Lehr et al., PNAS, […]. The mediator role of reactive oxygen species has been documented in many in vitro and in vivo models and, as a consequence, antioxidants and radical scavengers have been applied to counteract leukocyte activation, aggregation, and adhesion to endothelium and the subsequent microcirculatory dysfunction.

[2H]C([2H])([2H])C1(C([2H])([2H])[2H])[15N]([O])C(C([2H])([2H])[2H])(C([2H])([2H])[2H])C([2H])([2H])C([2H])(O)C1([2H])[2H] [^15ND17-TEMPOL]
time to disappearance of ESR signal after injection [1]: ≤ 2.5 min

4-amino-TEMPO labelled o-raffinose polymerized hemoglobin: o-raffinose polymerized hemoglobin labelled with 4-amino-TEMPO
nitroxide signal after storage of sample diluted with equal volume of unlabelled hemoglobin ([2]; 30 days of cold storage at 4° C.): partially regenerated
ESR resonance peaks after storage (conversion of nitroxide to hydroxylamine) ([2]; oxygenated, sealed glass container, 30 days at 4° C.): complete disappearance of the resonance peaks

CC1(C)CCCC(C)(C)N1[O] [TEMPO, 2,2,6,6 tetramethylpiperidine-1-oxyl]
LD50 ([3]; mice, intraperitoneal): 341 mg/kg
maximum tolerated intraperitoneal dose ([3]; mice): 275 mg/kg

CC1(C)CC(O)CC(C)(C)N1[O] [TPL, 4-hydroxy-2,2,6,6-tetramethylpiperidine-1-oxyl]
30-day survival [4]: 10%
half-life at 2 mM ([5]; read-out: half-life of EPR signal, first phase of double-exponential fit): 0.4 min
half-life at 2 mM ([5]; read-out: half-life of EPR signal, second phase of double-exponential fit): 2.9 min
maximal tolerated dose administered intraperitoneally ([3]; C3H mice): 275 mg/kg
maximum plasma level of TPL relative to ~100 mg/kg ip in the presence of PNA [6]: approximately one-fifth
half-life [7]: < 1 min
maximal TPL levels in whole blood ([8]; 275 mg/kg ip, 5-10 minutes after injection): ~150 µg/mL
dose of radiation at which 50% of treated mice die within 30 days ([8]; TPL 275 mg/kg ip 5-10 minutes before whole body radiation): 9.97 Gray
time to maximum peak intensity in mouse tail (repeat iv injection of TEMPOL): approximately 10 seconds
vasodilatory effect ([9]; 10% v/v top load, PNA 5 g/dl, TPL 100 mM): no significant vasodilatory effect
antihypertensive effect when injected alone with HBOC ([9]; conscious rats): no antihypertensive effect
half-life ([10]; C57, mouse): ~0.833 min
half-life ([10]; mouse): ~2 min

CC1(C)CC(O)CC(C)(C)N1O [TPH]
surviving fraction of V79 cells [11]: 2%

CC1(C)CC(O)CC(C)(C)[15N]1[O] [^15N-TPL]
plasma half-life (reduction to TPH) (mouse, 0.5 ml of 40 mM iv, no PNA): 2 min
local half-life in skin ([12]; abdomen skin, absence of intradermal PNA): 0.5 min
time the increased ^15N-TPL signal was maintained ([12]; abdomen skin, after intradermal injection of 100 μl PNA): at least 30 minutes
decay of ^15N-TPL to ^15N-TPH ([12]; absence of intradermal PNA): complete
time to maximum ^15N-TPL signal after tail vein injection ([12]; measured at site of intradermal PNA injection on the back): less than 2 minutes
residual steady-state level as share of the initial ^15N-TPL concentration ([12]; site of intradermal PNA injection, assuming complete distribution in total body water): 17%
time the ^15N-TPL signal remained stable ([12]; skin on the back, in the presence of intradermal PNA): at least 30 minutes

Hemoglobin-based oxygen carrier (HBOC), DBBF-Hb: purified hemoglobin cross-linked with bis(3,5 dibromosalicyl)fumarate
aggregate formation ([13]; 15 MINUTES): 3.0 ± 1.7 /30 sec
arteriolar sticking ([13]; 15 MINUTES): 31.9 ± 26.4 /mm^2
venular rolling ([13]; 15 MINUTES): 7.9 ± 2.8%
venular sticking ([13]; 15 MINUTES): 66.0 ± 43.2 /mm^2
aggregate formation ([13]; 60 MINUTES): 4.5 ± 2.6 /30 sec
arteriolar rolling ([13]; 60 MINUTES): 3.8 ± 2.9 /mm
arteriolar sticking ([13]; 60 MINUTES): 42.0 ± 32.1 /mm^2
venular rolling ([13]; 60 MINUTES): 9.2 ± 3.8%
venular sticking ([13]; 60 MINUTES): 101.5 ± 76.9 /mm^2
aggregate formation ([13]; BASELINE): 0.3 ± 0.5 /30 sec
arteriolar rolling ([13]; BASELINE): 0.3 /mm
arteriolar sticking ([13]; BASELINE): 0.0 /mm^2
venular rolling ([13]; BASELINE): 5.8 ± 1.2%
venular sticking ([13]; BASELINE): 0.0 ± 0.0 /mm^2
leukocyte activation ([13]; cigarette smoke, compared with saline-treated controls): no effect
